From patent US20250122174A1 (Shenzhen Yuanli Shenwan Innovative Medicine Co., Ltd., priority 2022, published 2025)

Each molecule was assayed against HPK1 (Homo sapiens (Human), UniProt Q92918) (assay: HPK1 Inhibition Assay (ADP-Glo kinase assay)). Settings: ATP 10 μM.
Type: biochemical
Summary of the method: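 ADP-Glo luminescence read-out after 1 h room-temperature kinase reaction with 10 μM ATP and 0.1 μg/ml MBP. Recombinant human HPK1 at 7.5 ng/μl; buffer 40 mM Tris pH 7.5, 20 mM MgCl2. Compounds serially diluted 5-fold over 10 points from 10 mM DMSO stock.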

Chain of HPK1 (Q92918 1-346 limits assumed): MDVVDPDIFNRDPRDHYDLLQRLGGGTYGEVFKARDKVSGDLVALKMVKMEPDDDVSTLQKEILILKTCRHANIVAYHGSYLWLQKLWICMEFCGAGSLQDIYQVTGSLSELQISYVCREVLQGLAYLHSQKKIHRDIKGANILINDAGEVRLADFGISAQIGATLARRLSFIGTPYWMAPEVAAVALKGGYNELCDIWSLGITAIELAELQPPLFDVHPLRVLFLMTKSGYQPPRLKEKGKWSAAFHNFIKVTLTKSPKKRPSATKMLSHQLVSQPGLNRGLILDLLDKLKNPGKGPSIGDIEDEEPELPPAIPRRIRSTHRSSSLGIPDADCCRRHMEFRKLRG

Row | SMILES | IC50 [nM]
1 | COc1cccc(F)c1-c1nccc(C(=O)Nc2ccc3c(nc(-c4ccncc4F)n3C)c2N2CC[C@H](N)C2)c1F [Example 14, N-{4-[(3S)-3-aminopyrrolidin-1-yl]-2-(3-fluoropyridin-4-yl)-1-methyl-1,3-benzodiazol-5-yl}-3-fluoro-2-(2-fluoro-6-methoxyphenyl)pyridine-4-carboxamide] | < 100
2 | CC(C)n1nc(F)c2c(N3C[C@@H](C)[C@@H](N)C3)c(NC(=O)c3ccc(=O)n(-c4c(F)cccc4F)n3)ccc21 [Example 198, N-(4-((3R,4R)-3-amino-4-methylpyrrolidin-1-yl)-3-fluoro-1-isopropyl-1H-indazol-5-yl)-1-(2,6-difluorophenyl)-6-oxo-1,6-dihydropyridazine-3-carboxamide] | < 100
3 | N#Cc1ccncc1-c1ccc(NC(=O)c2ccc(=O)n(-c3c(F)cccc3F)n2)c(N2CC[C@@](N)(CO)C2)c1 (single isomer, unassigned) [Example 355] | < 100
4 | CC1(C)CN(c2c(NC(=O)c3ccc(=O)n(-c4c(F)cccc4F)n3)ccc3nn([C@@H]4CCOC4)cc23)C[C@H]1N [Example 323, N-(4-((S)-4-amino-3,3-dimethylpyrrolidin-1-yl)-2-((R)-tetrahydrofuran-3-yl)-2H-indazol-5-yl)-1-(2,6-difluorophenyl)-6-oxo-1,6-dihydropyridazine-3-carboxamide] | < 100
5 | CC(C)c1nc2c(N3CC[C@](N)(CO)C3)c(NC(=O)c3ccc(=O)n(-c4c(F)cccc4F)n3)ccc2n1C (single isomer, unassigned) [Example 125] | < 100
6 | C[C@]1(O)CCN(c2cc(-c3cnccc3C#N)ccc2NC(=O)c2ccc(=O)n(-c3c(F)cccc3F)n2)C1 (single isomer, unassigned) [Example 353] | < 100
7 | CCC(C)(C)n1cc2c(N3C[C@H](C)[C@@H](N)C3)c(NC(=O)c3ccc(=O)n(-c4c(F)cccc4F)n3)ccc2n1 [Example 243, N-(4-((3R,4S)-3-amino-4-methylpyrrolidin-1-yl)-2-(tert-pentyl)-2H-indazol-5-yl)-1-(2,6-difluorophenyl)-6-oxo-1,6-dihydropyridazine-3-carboxamide] | < 100
8 | COc1cccc(F)c1-n1nccc(C(=O)Nc2ccc3c(nc(C(F)(F)F)n3C)c2N2CC[C@H](N)C2)c1=O [Example 41, (S)-N-(4-(3-aminopyrrolidin-1-yl)-1-methyl-2-(trifluoromethyl)-1H-benzo[d]imidazol-5-yl)-2-(2-fluoro-6-methoxyphenyl)-3-oxo-2,3-dihydropyridazine-4-carboxamide] | < 100
9 | CC(C)n1nc(F)c2c(N3C[C@H](N)C4(CC4)C3)c(NC(=O)c3ccc(=O)n(-c4c(F)cccc4F)n3)ccc21 [Example 199, (R)-N-(4-(7-amino-5-azaspiro[2.4]heptan-5-yl)-3-fluoro-1-isopropyl-1H-indazol-5-yl)-1-(2,6-difluorophenyl)-6-oxo-1,6-dihydropyridazine-3-carboxamide] | 100 to 1000
10 | CC[C@]1(N)CCN(c2c(NC(=O)c3ccc(=O)n(-c4c(F)cccc4F)n3)ccc3c2nc(C(C)C)n3C)C1 [Example 122, (S)-N-(4-(3-amino-3-ethylpyrrolidin-1-yl)-2-isopropyl-1-methyl-1H-benzo[d]imidazol-5-yl)-1-(2,6-difluorophenyl)-6-oxo-1,6-dihydropyridazine-3-carboxamide] | < 100
11 | Cc1nc2c(N3CCCC4(CNC4)C3)c(NC(=O)c3ccc(=O)n(-c4c(F)cccc4F)n3)ccc2n1C [Example 84, 1-(2,6-difluorophenyl)-N-(1,2-dimethyl-4-(2,6-diazaspiro[3.5]nonan-6-yl)-1H-benzo[d]imidazol-5-yl)-6-oxo-1,6-dihydropyridazine-3-carboxamide] | 100 to 1000
12 | [2H]C([2H])([2H])C([2H])(n1ncc2c(N3C[C@@H](C)[C@@H](N)C3)c(NC(=O)c3ccc(=O)n(-c4c(F)cccc4F)n3)ccc21)C([2H])([2H])[2H] [Example 275, N-(4-((3R,4R)-3-amino-4-methylpyrrolidin-1-yl)-1-(propan-2-yl-d7)-1H-indazol-5-yl)-1-(2,6-difluorophenyl)-6-oxo-1,6-dihydropyridazine-3-carboxamide] | < 100

Continued, values first:

Row | IC50 [nM] | SMILES
13 | < 100 | CC(C)(C)n1cc2c(N3CCC(N)CC3)c(NC(=O)c3ccc(=O)n(-c4c(F)cccc4F)n3)ccc2n1 [Example 240, N-(4-(4-aminopiperidin-1-yl)-2-(tert-butyl)-2H-indazol-5-yl)-1-(2,6-difluorophenyl)-6-oxo-1,6-dihydropyridazine-3-carboxamide]
14 | < 100 | Cc1nc2c(N3CCC[C@H]3CN)c(NC(=O)c3ccc(=O)n(-c4c(F)cccc4F)n3)ccc2n1C [Example 93, (S)-N-(4-(2-(aminomethyl)pyrrolidin-1-yl)-1,2-dimethyl-1H-benzo[d]imidazol-5-yl)-1-(2,6-difluorophenyl)-6-oxo-1,6-dihydropyridazine-3-carboxamide]
15 | < 100 | Cn1c(C(F)F)nc2c(N3CC[C@@H](N)C3)c(NC(=O)c3ccc(=O)n(-c4c(F)cccc4F)n3)ccc21 [Example 159, (R)-N-(4-(3-aminopyrrolidin-1-yl)-2-(difluoromethyl)-1-methyl-1H-benzo[d]imidazol-5-yl)-1-(2,6-difluorophenyl)-6-oxo-1,6-dihydropyridazine-3-carboxamide]
16 | < 100 | CC(C)n1ncc2c(N3CC[C@@H](N)C3)c(NC(=O)c3ccc(=O)n(-c4c(F)cccc4F)n3)ccc21 [Example 179, N-[4-[(3R)-3-aminopyrrolidin-1-yl]-1-isopropyl-indazol-5-yl]-1-(2,6-difluorophenyl)-6-oxo-pyridazine-3-carboxamide]
17 | < 100 | CC(C)n1ncc2c(N3C[C@@H]4[C@@H](N)[C@@H]4C3)c(NC(=O)c3ccc(=O)n(-c4c(F)cccc4F)n3)ccc21 [Example 211, N-(4-((1R,5S,6s)-6-amino-3-azabicyclo[3.1.0]hexan-3-yl)-1-isopropyl-1H-indazol-5-yl)-1-(2,6-difluorophenyl)-6-oxo-1,6-dihydropyridazine-3-carboxamide]
18 | < 100 | C[C@@H]1CN(c2c(NC(=O)c3ccc(=O)n(-c4c(F)cccc4F)n3)ccc3c2cnn3C2CCCC2)C[C@@H]1N [Example 288, N-(4-((3R,4R)-3-amino-4-methylpyrrolidin-1-yl)-1-cyclopentyl-1H-indazol-5-yl)-1-(2,6-difluorophenyl)-6-oxo-1,6-dihydropyridazine-3-carboxamide34]
19 | < 100 | CC[C@@H]1CN(c2c(NC(=O)c3ccc(=O)n(-c4c(F)cccc4F)n3)ccc3c2cnn3C(C)C)C[C@@H]1N (single isomer, unassigned) [Example 197]
20 | < 100 | Cn1c(C2CC2)nc2c(N3CC[C@H](N)C3)c(NC(=O)c3ccc(=O)n(-c4c(F)cccc4F)n3)ccc21 [Example 97, N-{4-[(35)-3-aminopyrrolidin-1-yl]-2-cyclopropyl-1-methyl-1,3-benzodiazol-5-yl}-1-(2,6-difluorophenyl)-6-oxopyridazine-3-carboxamide]
21 | < 100 | Cn1ncc2c(N3CCC[C@@H](N)C3)c(NC(=O)c3ccc(=O)n(-c4c(F)cccc4F)n3)cc(F)c21 [Example 169, (R)-N-(4-(3-aminopiperidin-1-yl)-7-fluoro-1-methyl-1H-indazol-5-yl)-1-(2,6-difluorophenyl)-6-oxo-1,6-dihydropyridazine-3-carboxamide]
